For 7 compounds, IC50 and ED50 results are on record in ChEMBL document CHEMBL1126991, “Isatin oximes - A novel series of bioavailable non-NMDA antagonists” (Bioorg Med Chem Lett, 1993).

The IC50 is the concentration that gives 50% inhibition. The term ED50 denotes the midpoint of the dose-response relation.

For assay [1], the species on record is Mus musculus. In words: Tested for the [Ca2+] i induced elevation using cultured mouse cortical neurons, exposed to 50 uM NMDA for 4 minutes. The assay is classed as functional.
The species entered for assay [2] is Rattus norvegicus. In words: Tested for the ability to inhibit NMDA (20 uM) induced depolarizations in rat cortical wedge preparation. The class given is functional.
For assay [3], the species on record is Mus musculus. Put plainly: Tested for the effective dosage required for the protection against AMPA induced seizures. The class given is functional.
For assay [4], the species on record is Mus musculus. Put plainly: Tested for the [Ca2+] i induced elevation using cultured mouse cortical neurons, exposed to 5 uM AMPA for 4 minutes. The class given is functional.
Assay [5] is filed under the species Rattus norvegicus. Put plainly: Tested for the ability to inhibit AMPA (5 uM) induced depolarizations in rat cortical wedge preparation. The class given is functional.
Assay [6] deals with Glutamate receptor ionotropic, AMPA (Rattus norvegicus, UniProt P19490+P19491+P19492+P19493). Put plainly: Tested for the inhibition of binding of [3H]AMPA radioligand to Ionotropic glutamate receptor AMPA to cortical membranes from rat brain.
Assay [7] has as its target Glutamate receptor ionotropic, kainate.
Description: Tested for the inhibition of binding of [3H]kainate radioligand to Ionotropic glutamate receptor kainate of cortical membranes from rat brain

`CN(C)S(=O)(=O)c1cc2c(N=O)c(O)[nH]c2c2c1CCCC2`: the IC50 was greater than 30 µM in the assay listed under Mus musculus [1]; greater than 30 µM in the assay filed under Rattus norvegicus [2]; 5.4 µM in the assay listed under Mus musculus [4]; 3.5 µM in the assay filed under Rattus norvegicus [5]; 1.8 µM in assay [6]; 27 µM in assay [7]. The compound also returned an ED50 in the assay listed under Mus musculus [3] of 3 mg/kg.

Turning to `CNS(=O)(=O)c1cc2c(N=O)c(O)[nH]c2c2c1CCCC2`, the half-maximal inhibitory concentration (IC50) in the assay filed under Mus musculus [1] was greater than 30 µM; in the assay filed under Rattus norvegicus [2] it was greater than 30 µM; in the assay listed under Mus musculus [4] it was 11 µM; in the assay listed under Rattus norvegicus [5], 5.2 µM; in assay [6], 2.8 µM; in assay [7], 30 µM. In the assay listed under Mus musculus [3], the 50% effect level (ED50) was put at a dose of 30 mg/kg.

In the assay filed under Mus musculus [3], `O=C1Nc2c(ccc3c2CCCC3)/C1=N/O` gave a 50% effective dose (ED50) greater than 30 mg/kg. In addition, the IC50 in assay [6] and in assay [7] was greater than 30 µM in each case.

As for `O=Nc1c(O)[nH]c2c3c(c([N+](=O)[O-])cc12)CCCC3`, the IC50 was greater than 30 µM in the assay filed under Mus musculus [1]; greater than 30 µM in the assay listed under Rattus norvegicus [2]; greater than 30 µM in the assay listed under Mus musculus [4]; greater than 30 µM in the assay filed under Rattus norvegicus [5]; 8.1 µM in assay [6]; greater than 30 µM in assay [7]. The 50% effective dose (ED50) in the assay listed under Mus musculus [3] is greater than 30 mg/kg.

Turning to `N#Cc1cc2c(cc1[N+](=O)[O-])=NC(=O)C(=O)N=2`, the 50% effect level in the assay filed under Mus musculus [3] (ED50) was put at a dose of 10 mg/kg.

As to `NS(=O)(=O)c1cc2c(N=O)c(O)[nH]c2c2c1CCCC2`, the IC50 was greater than 30 µM in the assay filed under Mus musculus [1]; greater than 30 µM in the assay filed under Rattus norvegicus [2]; 3.5 µM in the assay filed under Mus musculus [4]; 2.5 µM in the assay listed under Rattus norvegicus [5]; 2.8 µM in assay [6]; 24.5 µM in assay [7]. In the assay filed under Mus musculus [3], this compound registered a 50% effective dose (ED50) greater than 30 mg/kg.

With `NS(=O)(=O)c1cccc2c1c([N+](=O)[O-])cc1nc(O)c(O)nc12` [NBQX], the IC50 is greater than 30 µM in the assay listed under Mus musculus [1], greater than 30 µM in the assay listed under Rattus norvegicus [2], 0.3 µM in the assay listed under Mus musculus [4] and 0.3 µM in the assay listed under Rattus norvegicus [5]. It took a dose of 10 mg/kg to reach the 50% effect level in the assay filed under Mus musculus [3] (ED50).
